pKi: −log10 of the molar value.
Molecular target: T1, Complement C1s subcomponent (Homo sapiens, UniProt P09871)
T1 sequence (P09871 whole entry): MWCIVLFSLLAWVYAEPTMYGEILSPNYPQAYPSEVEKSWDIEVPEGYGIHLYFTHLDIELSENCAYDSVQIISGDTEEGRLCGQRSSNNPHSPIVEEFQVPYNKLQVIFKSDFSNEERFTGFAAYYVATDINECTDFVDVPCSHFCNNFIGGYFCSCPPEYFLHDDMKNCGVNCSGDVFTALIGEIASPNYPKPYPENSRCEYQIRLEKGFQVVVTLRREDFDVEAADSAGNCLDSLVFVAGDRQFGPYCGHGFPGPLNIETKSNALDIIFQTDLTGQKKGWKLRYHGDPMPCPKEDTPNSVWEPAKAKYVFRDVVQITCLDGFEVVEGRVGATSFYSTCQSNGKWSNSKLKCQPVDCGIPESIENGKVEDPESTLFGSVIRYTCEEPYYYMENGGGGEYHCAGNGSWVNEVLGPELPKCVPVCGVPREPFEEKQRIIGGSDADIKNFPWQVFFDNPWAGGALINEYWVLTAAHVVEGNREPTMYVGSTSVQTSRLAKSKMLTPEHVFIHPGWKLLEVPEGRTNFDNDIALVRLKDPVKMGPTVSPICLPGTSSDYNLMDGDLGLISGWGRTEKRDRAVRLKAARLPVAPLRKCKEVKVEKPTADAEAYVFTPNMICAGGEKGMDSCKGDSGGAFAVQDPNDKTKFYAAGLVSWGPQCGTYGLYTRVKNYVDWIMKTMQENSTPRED
Test: Enzymatic Assay
Conditions: pH 8.05; 25.50 °C
Source text: All readings were made in a Hitachi-Coleman ultraviolet-visible 101 spectrophotometer.

CC(C)(C)CNC(=N)N [2,2'-Dimethyl-1-guanidinopropane]
pKi: 1.87

Cc1nc(NC(=N)N)nc2ccccc12 [2-Guanidino-4-methylguinazoline]
pKi: 4.12

N=C(N)Nc1ccccc1 [Alpha-Phenylguanidine]
pKi: 3.26

N=C(N)c1ccccc1 [Benzamidine]
pKi: 3.22

N=C(N)NN [CAS_2146]
pKi: 1.74

N=C(N)NCC(=O)O [Guanidinacetic]
pKi: 2.36

O=C(CCl)NC(Cc1ccc(O)cc1)C(=O)O [N-Chloroacetyl-L-tyrosine]
pKi: 2.95

O=C(NC(Cc1ccc(O)cc1)C(=O)O)c1ccccc1 [N-z-L-Tyr]
pKi: 3.43

N=C(N)c1ccc([N+](=O)[O-])cc1 [p-Nitrobenzamidine]
pKi: 1.03
